Reference: patent publication US20060173066A1, “Remedy for diabetes” (Kyowa Hakko Kogyo Co., Ltd., priority 2003, published 2006)

How the values were obtained:
Type in all cases: in vivo
[1] = test system: KK-Ay/Ta Jcl mice of a type 2 diabetic model; test: Example 1: non-fasting blood-sugar level in mice fed CE-2 feed with 1% by weight of test substance
Text: (§1) KK-Ay/Ta Jcl mice (Clea Japan, Inc.; male; six weeks age) (15 mice) of a type 2 diabetic model were divided into three groups each comprising five mice and named group 1 to group 3.
(§2) The mice of the groups 1 to 3 were made free to take feed and water. A commercially available feed CE-2 (manufactured by Clea Japan, Inc.) was ingested to the mice of group 1. CE-2 to which 1% by weight of trans-4-hydroxy-L-proline (manufactured by Kyowa Hakko Kogyo; hereinafter, abbreviated as hydroxyproline) was added was ingested to the mice of group 2. CE-2 to which 1% by weight of trans-N-acetyl-4-hydroxy-L-proline (manufactured by Kyowa Hakko Kogyo; hereinafter, abbreviated as N-acetylhydroxyproline) was added was ingested to the mice of group 3.
(§3) On the initial day of the test and on the 17th day thereafter, blood was collected from tail vein and blood-sugar level upon non-fasting was measured by a Medisafe Reader GR-101 (manufactured by Thermo Co.). The mice were fasted for 18 hours during the 17th day to the 18th day after the start of the test and whole blood was collected from descending vena cava to prepare serum. The serum-insulin level was measured by a Levi Insulin Kit Mouse-T (manufactured by Shibayagi). The value was shown by mean value±standard error (n=5) and statistic ratio of risk (p value) was determined by a t-test. With regard to the ingested amounts during the test periods, there was no significant difference among the groups 1 to 3.

[2] = test system: GK/Jcl rats of a type 2 diabetic model; test: Example 5: blood-sugar level after oral glucose load in fasted rats; details: for Blood-Sugar Level, 30 min: 30 minutes after glucose 2 g/kg; for Blood-Sugar Level, 30 min / Blood-Sugar Level, −30 min / Blood-Sugar Level, 60 min / Blood-Sugar Level, 120 min / Blood-Sugar Level, 0 min: n=6; for Blood-Sugar Level, −30 min: 30 minutes before glucose 2 g/kg (baseline, at dosing), mean ± standard error; for Blood-Sugar Level, 60 min: 60 minutes after glucose 2 g/kg; for Blood-Sugar Level, 120 min: 120 minutes after glucose 2 g/kg; for Blood-Sugar Level, 0 min: upon glucose administration 2 g/kg
Experimental: GK/Jcl rats (Clea Japan, Inc.; male; nine weeks age) (18 mice) of a type 2 diabetic model were divided into three groups each comprising six mice and named groups 1 to 3.
After fasting for 18 hours, 5 ml/kg B.W. of a solvent (0.5% (w/v) methyl cellulose #400) was orally administered to the rats of the group 1. A 60 mg/ml solution of the hydroxyproline in the same solvent was orally administered to the rats of the group 2 so as to make the amount of administration 300 mg/kg B.W. A 200 mg/ml solution of the hydroxyproline in the same solvent was orally administered to the rats of the group 3 so as to make the amount of administration 1,000 mg/kg B.W. After 30 minutes from the oral administration, 2 g/kg B.W. of a 20% (w/v) aqueous solution of glucose was orally administered to the mice of the groups 1 to 3 to load with sugar. Blood was collected from tail vein 30 minutes before the administration of the aqueous glucose solution (−30 minutes), upon the administration (0 minute) and 30 minutes, 60 minutes and 120 minutes after the administration and blood-sugar levels were measured by a Medisafe Reader GR-101.
The value was shown by mean value±standard error (n=6) and statistic ratio of risk (p value) between the groups 1 and 2 and that between the groups 1 and 3 was determined by a one-way layout dispersion analysis and by a Dunnett test.

[3] = test system: GK/Jcl rats of a type 2 diabetic model; test: Example 4: blood-sugar level after single oral administration in rats; details: 1,000 mg/kg B.W. oral
Experimental: GK/Jcl rats (Clea Japan, Inc; male; nine weeks age) (12 mice) of a type 2 diabetic model were divided into two groups each comprising six mice and named group 1 and group 2.
Five ml/kg B.W. of a solvent (0.5% (w/v) methyl cellulose #400) was orally administered to the rats of the group 1. A 200 mg/ml solution of the hydroxyproline in the same solvent was orally administered to the rats of the group 2 so as to make the amount of administration 1,000 mg/kg B.W. Blood was collected from tail vein upon administration of the solvent or the hydroxyproline solution (0 minute) and 30 minutes, 60 minutes and 120 minutes after the administration and blood-sugar levels were measured by a Medisafe Reader GR-101. The value was shown by mean value±standard error (n=6) and statistic ratio of risk (p value) was determined by a t-test.

[4] = test system: KK-Ay/Ta Jcl mice of a type 2 diabetic model; test: Example 1: serum-insulin level after 18 hours fasting in mice fed CE-2 feed with 1% by weight of test substance
Text: as §1, §2, §3

In the case of `O=C(O)[C@@H]1C[C@@H](O)CN1` [hydroxyproline, trans-4-hydroxy-L-proline], the “antidiabetic action (conclusion from Table 1)” value ([1]; 17 days) was “antidiabetic action”, the “Blood-Sugar Level, 17th Day of the Test” value ([1]; non-fasting, tail vein blood, 17th day, mean ± standard error, n=5) was 260.4 ± 10.8 mg/dL and the “Blood-Sugar Level, Initial Day of the Test” value ([1]; non-fasting, tail vein blood, initial day (baseline), mean ± standard error, n=5) was 243.0 ± 12.2 mg/dL. For the same molecule, the “Blood-Sugar Level, 30 min” value ([2]; 300 mg/kg B.W. oral) was 269.5 ± 15.3 mg/dL, the “Blood-Sugar Level, −30 min” value ([2]; 300 mg/kg B.W. oral) was 113.3 ± 2.7 mg/dL and the “Blood-Sugar Level, 60 min” value ([2]; 300 mg/kg B.W. oral) was 298.2 ± 7.5 mg/dL. The “Blood-Sugar Level, 120 min” value ([2]; 300 mg/kg B.W. oral) was 207.5 ± 6.3 mg/dL, the “Blood-Sugar Level, 0 min” value ([2]; 300 mg/kg B.W. oral) was 144.2 ± 7.2 mg/dL and the “Blood-Sugar Level, 30 min” value ([2]; 1,000 mg/kg B.W. oral) was 226.2 ± 3.0 mg/dL. For the same molecule, the “Blood-Sugar Level, −30 min” value ([2]; 1,000 mg/kg B.W. oral) was 112.2 ± 3.3 mg/dL, the “Blood-Sugar Level, 60 min” value ([2]; 1,000 mg/kg B.W. oral) was 247.3 ± 4.4 mg/dL and the “Blood-Sugar Level, 120 min” value ([2]; 1,000 mg/kg B.W. oral) was 181.2 ± 7.3 mg/dL. For the same molecule, the “Blood-Sugar Level, 0 min” value ([2]; 1,000 mg/kg B.W. oral) was 137.0 ± 6.6 mg/dL, the “antidiabetic action (conclusion from Table 7)” value ([2]; 300 and 1,000 mg/kg B.W. oral, glucose load) was “dose-dependent antidiabetic-action” and the “antidiabetic action (conclusion from Table 6)” value [3] was “antidiabetic action”. The “Blood-Sugar Level, 30 min” value ([3]; 30 minutes after administration, mean ± standard error, n=6) was 220.3 ± 13.8 mg/dL, the “Blood-Sugar Level, 60 min” value ([3]; 60 minutes after administration, mean ± standard error, n=6) was 189.5 ± 10.9 mg/dL and the “Blood-Sugar Level, 120 min” value ([3]; 120 minutes after administration, mean ± standard error, n=6) was 156.0 ± 6.8 mg/dL. The “Blood-Sugar Level, 0 min” value ([3]; upon administration (baseline), mean ± standard error, n=6) was 189.2 ± 8.4 mg/dL, the “antidiabetic action by improving insulin resistance (conclusion from Tables 1 and 2)” value [4] was “show an antidiabetic action by improving the insulin resistance” and the “Serum-Insulin Level” value ([4]; 18th day after 18 hours fasting, mean ± standard error, n=5) was 1.01 ± 0.08 ng/mL.
